Structures can show the parent of a compound that is named as a salt.
Tests used:
cardiac microtissues = experiment: Transcriptomic profiling (mRNA-seq) and DESeq2 differential gene expression analysis in cardiac microtissues; conditions: absolute log2(Fold-Change) > 1, FDR p ≤ 0.05; for number of significant differentially expressed genes, 6hr high / number of significant differentially expressed genes, 48hr high / number of significant differentially expressed genes, 72hr high: high concentration; for number of significant differentially expressed genes, 6hr low / number of significant differentially expressed genes, 48hr low / number of significant differentially expressed genes, 72hr low: low concentration
[1] = ref FDA label, cited from earlier work; for Structural cardiotoxin?: FDA label references heart failure or a decrease in left ventricular ejection fraction; for Functional cardiotoxin?: compound annotation

| Structure (SMILES) | Structural cardiotoxin? [1] | Functional cardiotoxin? [1] | also measured |
| --- | --- | --- | --- |
| Nc1nc2c(ncn2COCCO)c(=O)[nH]1 [Acyclovir] | – | – | number of significant differentially expressed genes, 6hr high (cardiac microtissues): 3; number of significant differentially expressed genes, 6hr low (cardiac microtissues): 4; number of significant differentially expressed genes, 48hr high (cardiac microtissues): 0; number of significant differentially expressed genes, 48hr low (cardiac microtissues): 0; number of significant differentially expressed genes, 72hr high (cardiac microtissues): 0; number of significant differentially expressed genes, 72hr low (cardiac microtissues): 0 |
| CN(C)C/C=C/C(=O)Nc1cc2c(Nc3ccc(F)c(Cl)c3)ncnc2cc1O[C@H]1CCOC1 [Afatinib] | N | N | – |
| CC1(C)S[C@@H]2[C@H](NC(=O)[C@H](N)c3ccc(O)cc3)C(=O)N2[C@H]1C(=O)O [Amoxacillin] | N | N | – |
| CNC(=O)c1ccccc1Sc1ccc2c(/C=C/c3ccccn3)n[nH]c2c1 [Axitinib] | N | Y | – |
| O=C1CC2(CCCC2)CC(=O)N1CCCCN1CCN(c2ncccn2)CC1 [Buspirone HCl] | N | N | number of significant differentially expressed genes, 6hr high (cardiac microtissues): 42; number of significant differentially expressed genes, 6hr low (cardiac microtissues): 10; number of significant differentially expressed genes, 48hr high (cardiac microtissues): 14; number of significant differentially expressed genes, 48hr low (cardiac microtissues): 6; number of significant differentially expressed genes, 72hr high (cardiac microtissues): 8; number of significant differentially expressed genes, 72hr low (cardiac microtissues): 4 |
| Cc1ccc(-c2cc(C(F)(F)F)nn2-c2ccc(S(N)(=O)=O)cc2)cc1 [Celecoxib] | Y | Y | – |
| Cc1cc(Nc2ncc(Cl)c(Nc3ccccc3S(=O)(=O)C(C)C)n2)c(OC(C)C)cc1C1CCNCC1 [Ceritinib] | N | Y | – |
| CN1CCN(C2=Nc3cc(Cl)ccc3Nc3ccccc32)CC1 [Clozapine] | – | Y | number of significant differentially expressed genes, 6hr high (cardiac microtissues): 16; number of significant differentially expressed genes, 6hr low (cardiac microtissues): 2; number of significant differentially expressed genes, 48hr high (cardiac microtissues): 25; number of significant differentially expressed genes, 48hr low (cardiac microtissues): 4; number of significant differentially expressed genes, 72hr high (cardiac microtissues): 60; number of significant differentially expressed genes, 72hr low (cardiac microtissues): 1 |
| C[C@@H](Oc1cc(-c2cnn(C3CCNCC3)c2)cnc1N)c1c(Cl)ccc(F)c1Cl [Crizotinib] | N | Y | – |
| O=P1(N(CCCl)CCCl)NCCCO1 (stereo not shown) [Cyclophosphamide] | Y | Y | – |
| Nc1ccc(S(=O)(=O)c2ccc(N)cc2)cc1 [Dapsone] | N | N | – |
| COc1cccc2c1C(=O)c1c(O)c3c(c(O)c1C2=O)C[C@@](O)(C(C)=O)C[C@@H]3O[C@H]1C[C@H](N)[C@H](O)[C@H](C)O1 [Daunorubicin] | Y | Y | – |
| C[C@@H]1C[C@H]2[C@@H]3CCC4=CC(=O)C=C[C@]4(C)[C@@]3(F)[C@@H](O)C[C@]2(C)[C@@]1(O)C(=O)CO [Dexamethasone] | N | N | – |
| COc1cccc2c1C(=O)c1c(O)c3c(c(O)c1C2=O)C[C@@](O)(C(=O)CO)C[C@@H]3O[C@H]1C[C@H](N)[C@@H](O)[C@H](C)O1 [Epirubicin] | Y | Y | – |
| COC(=O)[C@@H]1CC2=CC(=O)CC[C@]2(C)[C@@]23O[C@@H]2C[C@@]2(C)[C@@H](CC[C@@]24CCC(=O)O4)[C@H]13 [Eplerenone] | N | Y | – |
| Cc1ccc(C)c(OCCCC(C)(C)C(=O)O)c1 [Gemfibrozil] | N | N | – |
| CC(C)NCC(O)c1ccc(O)c(O)c1 (stereo not shown) [Isoproterenol HCl] | Y | Y | – |
| CCn1cc(C(=O)O)c(=O)c2cc(F)c(N3CCNC(C)C3)c(F)c21 (stereo not shown) [Lomefloxacin] | Y | Y | – |
| COC(=O)Nc1nc2ccc(C(=O)c3ccccc3)cc2[nH]1 [Mebendazole] | – | – | number of significant differentially expressed genes, 6hr high (cardiac microtissues): 195; number of significant differentially expressed genes, 6hr low (cardiac microtissues): 27; number of significant differentially expressed genes, 48hr high (cardiac microtissues): 407; number of significant differentially expressed genes, 48hr low (cardiac microtissues): 79; number of significant differentially expressed genes, 72hr high (cardiac microtissues): 536; number of significant differentially expressed genes, 72hr low (cardiac microtissues): 192 |
| CN(C)CCN(Cc1cccs1)c1ccccn1 [Methapyrilene] | N | – | – |
| O=C1C[C@@H](c2ccc(O)cc2)Oc2cc(O)cc(O)c21 [Narigenin, Naringenin] | N | N | – |
| Cc1ccc(Nc2nccc(N(C)c3ccc4c(C)n(C)nc4c3)n2)cc1S(N)(=O)=O [Pazopanib] | N | Y | – |
| CCc1ccc(CCOc2ccc(CC3SC(=O)NC3=O)cc2)nc1 (stereo not shown) [Pioglitazone] | Y | Y | – |
| Cc1ccc(C(=O)Nc2ccc(CN3CCN(C)CC3)c(C(F)(F)F)c2)cc1C#Cc1cnc2cccnn12 [Ponatinib] | Y | Y | – |
| O=C(C1CCCCC1)N1CC(=O)N2CCc3ccccc3C2C1 (stereo not shown) [Praziquantel] | N | N | – |
| CS(=O)(=O)c1ccc(C2=C(c3ccccc3)C(=O)OC2)cc1 [Rofecoxib] | Y | Y | – |
| N#CC[C@H](C1CCCC1)n1cc(-c2ncnc3[nH]ccc23)cn1 [Ruxolitinib] | N | N | – |
| NC[C@H]1O[C@H](O[C@H]2[C@H](O)[C@@H](O[C@H]3O[C@H](CO)[C@@H](O)[C@H](N)[C@H]3O)[C@H](N)C[C@@H]2N)[C@H](N)C[C@@H]1O [Tobramycin] | N | N | – |
| CCCCNC(=O)NS(=O)(=O)c1ccc(C)cc1 [Tolbutamide] | N | N | – |
